Reference: ChEMBL document CHEMBL1147885, “A novel noninvasive method for assessing glutathione-conjugate efflux systems in the brain” (Bioorg Med Chem, 2007)

Experiments:
Assay type in all cases: ADME, organism-based
Brain [1] = experiment: Metabolic stability in intravenously dosed Wistar rat brain assessed as radioactivity remained in unchanged form after 15 mins by TLC; conditions: in vivo, iv, 0.25 h
Brain [2] = experiment: Metabolic stability in intravenously dosed Wistar rat brain assessed as metabolite level after 60 mins by HPLC; conditions: in vivo, iv, 1 h
Brain [3] = experiment: Metabolic stability in intravenously dosed Wistar rat brain assessed as metabolite level after 15 mins by HPLC; conditions: in vivo, iv, 0.25 h

Measured: Stability

[14CH3]n1cnc2ncnc(Cl)c21
80%: all assays above
